In patent publication US20100278733A1, “COMPOSITION FOR DIAGNOSIS OF AMYLOID-RELATED DISEASE” (priority 2007, published 2010):
One block for each compound: values may come before it.

Legend:
Aβ(1-42) aggregate = target: T1, Aβ(1-42) aggregate (Homo sapiens, UniProt P05067); test: Binding inhibition experiment using Aβ(1-42) aggregate, Ki values (Example 2); conditions: compound numbers of Example 2; for Ki: radioactive ligand [^125I]CL-NMe2, mean ± standard error of 3 experiments (compound 4: 6 experiments), read-out: Ki values calculated by inhibition experiment; for binding affinity for the Aβ(1-42) aggregate: in words, derivatives with two substituents on Ring A
T1 construct: Amyloid β protein (Human, 1-42) [TFA form] was purchased from Peptide Institute, Inc; purchased Peptide Institute, Inc
T1 sequence (P05067 672-713 limits assumed): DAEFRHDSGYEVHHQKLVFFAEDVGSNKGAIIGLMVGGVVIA
Method: As a radioactive iodine-125 (^125I), Iodine-125 (3.7 GBq/mL) manufactured by MP Biomedicals, Inc. was used. Reverse phase HPLC was performed at a flow rate of 1.0 mL/min using a Cosmosil 5C18-AR-II column (4.6×150 mm) manufactured by Nacalai Tesque Inc. and ultrapure water:acetonitrile=3:7 as an elution solvent. ^1HNMR was measured using Varian Gemini 300 and tetramethylsilane as an internal standard substance. Mass spectrometry was performed using JEOL IMS-DX300. Preparative TLC was performed using 12 PLC plates 20×20-cm-Silica gel 60 F254, 2 mm manufactured by MERCK. Amyloid β protein (Human, 1-42) was purchased from Peptide Institute, Inc., and special grade reagents were used as other reagents.
Aβ(1-42) was dissolved in 10 mM phosphate buffer containing 1 mM EDTA (pH 7.4) at a concentration of 0.25 mg/mL, and the mixture was incubated at 37° C. for 42 h to prepare an Aβ(1-42) aggregate.
[…] of 10% EtOH solution, […] of a solution of [^125I]4-diethylamino-4′-iodochalcone ([^125I]CL-NMe2) in 10% ethanol, and […] of a sample solution at various concentrations (0 to 20 mM) were mixed, […] of an Aβ(1-42) aggregate solution was finally added, and the mixture was allowed to stand at room temperature for 3 h. Aβ(1-42) aggregate-bound compounds and nonbound compounds were separated with a Brandel M-24R cell harvester using a Whatman GF/B filter. Radioactivities remaining on the filter after filtration were measured with a γ-counter, and inhibition curves were created using Graph Pad Prism 4.0 to calculate inhibition constants (Ki values).

[1] = In-vivo radioactivity distribution experiment in mice (Reference Example 1); conditions: intravenous, mean (standard deviation), Reference Example 1 numbering
Method: A radioactive iodine-labeled compound (Compound 7) was diluted with physiological saline containing 5 to 10% ethanol. Three to five 5-week-old male ddY mice (25 to 30 g) per group were decapitated at 2, 10, 30, or 60 min after intravenous administration of […] (0.5 to 1 μCi) of the labeled compound, blood was collected, organs were removed, and weights and radioactivities thereof were measured.

[2] = In-vivo radioactivity distribution experiment using normal mice (Example 2); conditions: normal mice, intravenous, Example 2 numbering
Method: Radioactive iodine labeling compounds were diluted with physiological saline containing 10% EtOH. To each of four or five 5-week-old male ddY mice (20 to 25 g) per group, […] of a labeled compound, [^125I]Compound 7, 10, 13, or 14 (0.2 to 0.4 mCi), was administered from the caudal vein. Animals were decapitated at 2, 10, 30, or 60 min, blood was collected, the major organs were isolated, and then weights and radioactivities thereof were measured.

Structure (SMILES): Nc1ccc(C=CC(=O)c2ccc(I)cc2)cc1 [CL-NH2, reference compound]
Ki (Aβ(1-42) aggregate): 105 ± 12 nM

Structure (SMILES): O=C(C=Cc1nccs1)c1ccc(I)cc1 [Compound 27 in Example 2, 1-(4-iodophenyl)-3-(thiazol-2-yl)-prop-2-en-1-one]
Ki (Aβ(1-42) aggregate): > 10000 nM

Structure (SMILES): Nc1ccc(/C=C/C(=O)c2ccc(I)cc2)c(N)c1 [Compound 39 in Example 2, 2,4-diamino-4′-iodochalcone]
binding affinity for the Aβ(1-42) aggregate (Aβ(1-42) aggregate): no compound showed a high binding affinity

Structure (SMILES): CNc1ccc(C=CC(=O)c2ccc(I)cc2)cc1 [CL-NHMe, reference compound]
Ki (Aβ(1-42) aggregate): 6.3 ± 1.6 nM

Structure (SMILES): CN(C)c1ccc(C=CC(=O)c2ccc(Br)o2)o1 [Compound 34 in Example 2, 1-(5-bromo-2-furyl)-3-(5-dimethylamino-2-furyl)-prop-2-en-1-one]
Ki (Aβ(1-42) aggregate): > 10000 nM

Structure (SMILES): COc1cc(/C=C/C(=O)c2cccc(I)c2)ccc1O [Compound 7 in Reference Example 1, (E)-3-(4-hydroxy-3-methoxyphenyl)-1-(3-iodophenyl)prop-2-en-1-one]
In-vivo distribution of radioactivity: Blood ([1]; 2 min): 4.90 (0.52) percents of the dose/g
In-vivo distribution of radioactivity: Brain ([1]; 2 min): 2.52 (0.20) percents of the dose/g
In-vivo distribution of radioactivity: Heart ([1]; 2 min): 5.58 (0.99) percents of the dose/g
In-vivo distribution of radioactivity: Intestines ([1]; 2 min): 2.50 (0.31) percents of the dose/g
In-vivo distribution of radioactivity: Kidneys ([1]; 2 min): 11.99 (3.60) percents of the dose/g
In-vivo distribution of radioactivity: Liver ([1]; 2 min): 15.71 (1.27) percents of the dose/g
In-vivo distribution of radioactivity: Spleen ([1]; 2 min): 2.57 (0.42) percents of the dose/g
In-vivo distribution of radioactivity: Blood ([1]; 10 min): 3.80 (0.91) percents of the dose/g
In-vivo distribution of radioactivity: Brain ([1]; 10 min): 1.28 (0.17) percents of the dose/g
In-vivo distribution of radioactivity: Heart ([1]; 10 min): 2.88 (1.02) percents of the dose/g
In-vivo distribution of radioactivity: Intestines ([1]; 10 min): 10.52 (1.82) percents of the dose/g
In-vivo distribution of radioactivity: Kidneys ([1]; 10 min): 9.16 (2.76) percents of the dose/g
In-vivo distribution of radioactivity: Liver ([1]; 10 min): 18.55 (2.68) percents of the dose/g
In-vivo distribution of radioactivity: Spleen ([1]; 10 min): 1.80 (0.30) percents of the dose/g
In-vivo distribution of radioactivity: Blood ([1]; 30 min): 1.84 (0.31) percents of the dose/g
In-vivo distribution of radioactivity: Brain ([1]; 30 min): 0.40 (0.11) percents of the dose/g
In-vivo distribution of radioactivity: Heart ([1]; 30 min): 1.44 (0.34) percents of the dose/g
In-vivo distribution of radioactivity: Intestines ([1]; 30 min): 20.60 (6.13) percents of the dose/g
In-vivo distribution of radioactivity: Kidneys ([1]; 30 min): 5.00 (2.27) percents of the dose/g
In-vivo distribution of radioactivity: Liver ([1]; 30 min): 7.67 (1.68) percents of the dose/g
In-vivo distribution of radioactivity: Spleen ([1]; 30 min): 1.03 (0.04) percents of the dose/g
In-vivo distribution of radioactivity: Blood ([1]; 60 min): 1.15 (0.44) percents of the dose/g
In-vivo distribution of radioactivity: Brain ([1]; 60 min): 0.35 (0.05) percents of the dose/g
In-vivo distribution of radioactivity: Heart ([1]; 60 min): 1.38 (0.34) percents of the dose/g
In-vivo distribution of radioactivity: Intestines ([1]; 60 min): 29.31 (3.26) percents of the dose/g
In-vivo distribution of radioactivity: Kidneys ([1]; 60 min): 4.31 (0.81) percents of the dose/g
In-vivo distribution of radioactivity: Liver ([1]; 60 min): 4.05 (0.61) percents of the dose/g
In-vivo distribution of radioactivity: Spleen ([1]; 60 min): 0.88 (0.15) percents of the dose/g

Structure (SMILES): CN(C)c1ccc(C=CC(=O)c2ccc(I)cc2)o1 [Compound 31 in Example 2, 1-(4-iodophenyl)-3-(5-dimethylamino-2-furanyl)-prop-2-en-1-one]
Ki (Aβ(1-42) aggregate): 1130 ± 344 nM

Structure (SMILES): CN(C)c1ccc(C=CC(=O)c2ccc(Br)o2)s1 [Compound 35 in Example 2, 1-(5-bromo-2-furyl)-3-(5-dimethylamino-2-thienyl)-prop-2-en-1-one]
Ki (Aβ(1-42) aggregate): 2650 ± 221 nM

Structure (SMILES): CNc1ccc(C(=O)/C=C/c2ccc(I)cc2)cc1 [Compound 7 in Example 2, 4-iodo-4′-methylaminochalcone]
In-vivo radioactivity distribution: blood ([2]; 2 min): 1.76 (0.27) percent of the dose/g
In-vivo radioactivity distribution: brain ([2]; 2 min): 3.07 (0.57) percent of the dose/g
In-vivo radioactivity distribution: heart ([2]; 2 min): 5.00 (0.79) percent of the dose/g
In-vivo radioactivity distribution: intestine ([2]; 2 min): 2.52 (0.81) percent of the dose/g
In-vivo radioactivity distribution: kidney ([2]; 2 min): 6.20 (0.93) percent of the dose/g
In-vivo radioactivity distribution: liver ([2]; 2 min): 10.82 (2.61) percent of the dose/g
In-vivo radioactivity distribution: lung ([2]; 2 min): 11.10 (3.36) percent of the dose/g
In-vivo radioactivity distribution: pancreas ([2]; 2 min): 4.93 (1.01) percent of the dose/g
In-vivo radioactivity distribution: spleen ([2]; 2 min): 2.27 (0.48) percent of the dose/g
In-vivo radioactivity distribution: stomach ([2]; 2 min): 1.06 (0.67) percent of the dose
In-vivo radioactivity distribution: blood ([2]; 10 min): 1.43 (0.30) percent of the dose/g
In-vivo radioactivity distribution: brain ([2]; 10 min): 2.03 (0.41) percent of the dose/g
In-vivo radioactivity distribution: heart ([2]; 10 min): 1.98 (0.24) percent of the dose/g
In-vivo radioactivity distribution: intestine ([2]; 10 min): 7.78 (1.31) percent of the dose/g
In-vivo radioactivity distribution: kidney ([2]; 10 min): 4.56 (0.67) percent of the dose/g
In-vivo radioactivity distribution: liver ([2]; 10 min): 9.42 (1.92) percent of the dose/g
In-vivo radioactivity distribution: lung ([2]; 10 min): 4.94 (1.73) percent of the dose/g
In-vivo radioactivity distribution: pancreas ([2]; 10 min): 2.99 (1.70) percent of the dose/g
In-vivo radioactivity distribution: spleen ([2]; 10 min): 1.47 (0.27) percent of the dose/g
In-vivo radioactivity distribution: stomach ([2]; 10 min): 0.87 (0.38) percent of the dose
In-vivo radioactivity distribution: blood ([2]; 30 min): 1.15 (0.57) percent of the dose/g
In-vivo radioactivity distribution: brain ([2]; 30 min): 0.69 (0.09) percent of the dose/g
In-vivo radioactivity distribution: heart ([2]; 30 min): 0.98 (0.20) percent of the dose/g
In-vivo radioactivity distribution: intestine ([2]; 30 min): 17.52 (1.74) percent of the dose/g
In-vivo radioactivity distribution: kidney ([2]; 30 min): 3.92 (1.05) percent of the dose/g
In-vivo radioactivity distribution: liver ([2]; 30 min): 6.77 (1.21) percent of the dose/g
In-vivo radioactivity distribution: lung ([2]; 30 min): 2.22 (0.58) percent of the dose/g
In-vivo radioactivity distribution: pancreas ([2]; 30 min): 1.04 (0.35) percent of the dose/g
In-vivo radioactivity distribution: spleen ([2]; 30 min): 0.94 (0.48) percent of the dose/g
In-vivo radioactivity distribution: stomach ([2]; 30 min): 0.70(0.11) percent of the dose
In-vivo radioactivity distribution: blood ([2]; 60 min): 1.51 (0.26) percent of the dose/g
In-vivo radioactivity distribution: brain ([2]; 60 min): 0.40 (0.08) percent of the dose/g
In-vivo radioactivity distribution: heart ([2]; 60 min): 0.82 (0.14) percent of the dose/g
In-vivo radioactivity distribution: intestine ([2]; 60 min): 18.47 (2.31) percent of the dose/g
In-vivo radioactivity distribution: kidney ([2]; 60 min): 4.04 (1.10) percent of the dose/g
In-vivo radioactivity distribution: liver ([2]; 60 min): 6.01 (1.81) percent of the dose/g
In-vivo radioactivity distribution: lung ([2]; 60 min): 1.57 (0.23) percent of the dose/g
In-vivo radioactivity distribution: pancreas ([2]; 60 min): 0.78 (0.16) percent of the dose/g
In-vivo radioactivity distribution: spleen ([2]; 60 min): 0.71 (0.19) percent of the dose/g
In-vivo radioactivity distribution: stomach ([2]; 60 min): 1.14 (0.48) percent of the dose

More lines, main results first:

Ki (Aβ(1-42) aggregate): 476 ± 47.9 nM
Structure (SMILES): Nc1ccc(C(=O)C=Cc2ccc(Br)s2)cc1 [Compound 44 in Example 2, 3-(5-bromo-2-thienyl)-1-(4-aminophenyl)-prop-2-en-1-one]

Ki (Aβ(1-42) aggregate): 157 ± 80.8 nM
Structure (SMILES): COc1ccc(/C=C/C(=O)c2ccc(I)cc2)cc1O [Compound 41 in Example 2, 3-hydroxy-4′-iodo-4-methoxychalcone]
binding affinity for the Aβ(1-42) aggregate (Aβ(1-42) aggregate): no compound showed a high binding affinity

Ki (Aβ(1-42) aggregate): 106 ± 7.1 nM
Structure (SMILES): CN(C)c1ccc(C(=O)C=Cc2ccc(Br)s2)cc1 [Compound 46 in Example 2, 3-(5-bromo-2-thienyl)-1-(4-dimethylaminophenyl)-prop-2-en-1-one]

Ki (Aβ(1-42) aggregate): 223 ± 76.1 nM
Structure (SMILES): COc1ccc(/C=C/C(=O)c2ccc(I)cc2)cc1OC [Compound 42 in Example 2, 3,4-dimethoxy-4′-iodochalcone]
binding affinity for the Aβ(1-42) aggregate (Aβ(1-42) aggregate): no compound showed a high binding affinity

Ki (Aβ(1-42) aggregate): 198 ± 48.6 nM
Structure (SMILES): CNc1ccc(C(=O)C=Cc2ccc(Br)s2)cc1 [Compound 45 in Example 2, 3-(5-bromo-2-thienyl)-1-(4-methylaminophenyl)-prop-2-en-1-one]
